Experimental data as given in publication PMC8424644, “Thermodynamic Stability and Speciation of Ga(III) and Zr(IV) Complexes with High-Denticity Hydroxamate Chelators” (Inorganic Chemistry, 2021).
Marks after values point to notes of the source that are not given here.

Tests used:
[1] = Ligand protonation constants, potentiometric titrations; format: physicochemical
Text: The metal affinity of a ligand depends on its acid-base properties; therefore, the protonation equilibria of […] and […] were first investigated. The proton-dissociation processes of the ligands were followed by potentiometric titrations in the pH range 2-11. The hydrolytic stability of the ligands was monitored by a second titration of the same sample with NaOH, following back-acidification of the initially titrated sample. […] As was previously reported in the example of α- and β-alanine hydroxamic acids, the amino group may be more acidic than the hydroxamic group, or vice versa. […] However, such a precise analysis is not needed for the determination of the stability of […]-metal complexes and therefore was not performed. […] The potentiometric titrations of ligands and their complexes were carried out using a Titrando 905 (Metrohm) automatic titrator system, equipped with a combined glass electrode (Mettler Toledo, InLab Semi-Micro, with […] Polymer filling) and a 800 Dosino dosing system, equipped with a a 2 mL micro buret. The ionic strength was fixed at I = 0.1 M with NaClO4. The electrode was calibrated daily in terms of hydrogen ion concentration using HClO4 (0.1 M) with CO2-free NaOH solutions (0.1 M).[76] A stream of high-purity argon, presaturated with water vapor, was passed over the surface of the solution cell, the cell was filled with 50 mL of the studied solution, and the system was thermostated at 25.0 ± 0.2 °C. At least three titrations were performed for each system, with a starting concentration of the ligand of 1 mM and a 1:1 metal to ligand molar ratio with a 10% excess of the ligand in the pH range 2-11. The purity and exact concentration of the ligand solutions were determined using the Gran method.[77] Special care was taken to ensure that complete equilibration was attained. […] The potentiometric data were refined with the […][78] and […][79] programs, which use nonlinear least-squares methods.

[2] = Fe(III)–Ga(III) metal–metal competition UV–vis titrations; format: physicochemical; conditions: Ga(III)-L + Fe(III) competition titration, pH 1.5; judged to carry a greater error, not retained
Protocol: Assuming the domination of the [GaHL1]^+ complex below pH 2, its stability was determined by metal–metal competition titrations, (i) Fe(III)-H3L1 + Ga(III) and (ii) Ga(III)-H3L1 + Fe(III), both performed at pH 1.5. This pH was chosen in order to prevent the hydrolysis of the free metal ions and decomposition of the ligand, which is common for hydroxamic acids at a very acidic pH.[37],[51] Upon addition of Ga(III) (up to 600 equiv) to the Fe(III)-H3L1 solution, the UV–vis band of [FeHL1]^+ (λmax = 470 nm, Figure 2a) slowly disappeared as a result of the [GaHL1]^+ complex formation. […]
For the Ga(III)-H4L2 system, [GaH2L2]^+ was assumed to be the most abundant species at pH 1.5, and its stability was again determined via (i) Fe(III)-H4L2 + Ga(III) and (ii) Ga(III)-H4L2 + Fe(III) titrations (Figure S8). […]
For the Ga(III)-H3L4 system, [GaHL4]^+ was assumed to be the major complex at pH 1.5, and its stability was determined via an Fe(III)-H3L4 + Ga(III) competition titration (Figure S9). […]
In order to calculate the stability constants of the investigated complexes, several competitive titrations were performed. […] After preparation, each solution was allowed to equilibrate for about 1 h, and then its UV–vis spectrum was recorded. The vials were kept in the dark, and the absorbance was measured again after 24, 48, and 120 h. […]

[3] = potentiometric titrations, 25 °C, I = 0.1 M NaClO4

Row | log K LH2 (ligand protonation) [1, 3] | log K LH3 (ligand protonation) [1, 3] | log K LH (ligand protonation) [1, 3] | log β LH2 (ligand protonation) [1, 3] | log β LH3 (ligand protonation) [1, 3] | log β LH (ligand protonation) [1, 3] | log β [GaHL] [2] | protonation constant of the amino group (log K) ([1]; not detectable in the experimental pH range 2–11, assumed on the basis of DFOB) | log K LH4 (ligand protonation) [1, 3] | log β LH4 (ligand protonation) [1, 3] | log β [GaH2L] [2] | Compound
1 | 9.24 ^d | 8.31 ^d | 9.89 ^d | 19.13(1) ^d | 27.44(1) ^d | 9.89(1) ^d | 28.3(6) | – | – | – | – | O=C1CCCN(O)C(=O)CCCNC(=O)CCCN(O)C(=O)CCCNC(=O)CCCN(O)C(=O)CCCN1 [H3L1, 1,11,21-Trihydroxy-1,6,11,16,21,26-hexaazacyclotriacontane-2,7,12,17,22,27-hexaone]
2 | 9.59 ^d | 8.94 ^d | 10.06 ^d | 19.65(1) ^d | 28.59(1) ^d | 10.06(1) ^d | – | > 11 | 8.18 ^d | 36.77(1) ^d | 39.06(4) | N[C@H]1CCCCNC(=O)CCCN(O)C(=O)CCCNC(=O)CCCN(O)C(=O)CCCNC(=O)CCCN(O)C(=O)CCCNC(=O)CCCN(O)C(=O)CCCNC1=O [H4L2, (S)-43-Amino-6,16,26,36-tetrahydroxy-1,6,11,16,21,26,31,36,41-nonaazacycloheptatetracontane-2,7,12,17,22,27,32,37,42-nonaone]
